Source: patent US6153640A, “Benzo[3,4]cyclobuta[1,2-c]pyrrole compounds” (Adir et Compagnie, priority 1999, dated 2000)

What was measured:
[1] = molecular target: T1, serotonin reuptake site (Rattus norvegicus, UniProt P31652); test: Affinity for serotonin reuptake sites ([3H]-paroxetine competition binding); conditions: [3H]-paroxetine 1.0 nM, rat frontal cortex membranes, 2 hours at 25° C., pH 7.4; read-out: pKi (-log Ki), affinity for serotonin reuptake sites (converted)
T1 construct: The membranes are prepared from rat frontal cortex; from tissue; host or cells: rat frontal cortex membranes
Description: The incubation buffer contains […] TRIS-HCl (pH 7.4), 120 mM NaCl and 5 mM KCl. The non-specific binding is determined using 10 μM citalopram. At the end of the incubation, the incubation medium is filtered and washed three times with 5 ml of cooled buffer. The radioactivity retained on the filters is determined by liquid scintillation counting. The binding isotherms are analysed by non-linear regression to determine the IC50 values. Those values are converted into a dissociation constant (Ki) using the Cheng-Prusoff equation: […]
The results are expressed in pKi (-log Ki).

[2] = test system: levels of serotonin, dopamine and noradrenaline in cingulate frontal cortex; test: Microdialysis experiment in the rat (frontal cortex); format: in vivo; conditions: 10 mg/kg subcutaneous, baseline defined as 0%
Description: Rats are anaesthetised with pentobarbital (60 mg/kg i.p.). They are placed in a Kopf stereotaxic device and the cannula guide is implanted in the cingulate frontal cortex in accordance with the coordinates described in the Paxinos and Watson atlas (1982) as follows: AP=+2.2; L=±0.6; DV=-0.2. The rats are placed in separate cages and are not used in dialysis until 5 days later. […] The probe is perfused at a flow rate of 1 μl/min. with a solution of 147.2 mM NaCl, 4 mM KCl and 2.3 mM CaCl2 adjusted to pH 7.3 with a phosphate buffer (0.1 M). Two hours after implantation, samples are collected every 20 minutes for 4 hours. Three baseline samples are taken before administration of the products to be tested. The rats are left in their individual cages for the whole of the experiment. When the experiment is finished, the rats are decapitated and the brain is removed and frozen in isopentane. Sections of a thickness of 100 μm are cut and stained with cresyl violet, which allows verification of the location of the probes. The simultaneous quantification of dopamine, norepinephrine and serotonin is carried out as follows: 20 μl of dialysis sample are diluted with 20 μl of mobile phase (NaH2 PO4 : 75 mM; EDTA: 20 μM; sodium 1-decanesulphonate: 1 mM; methanol: 17.5%; triethylamine: 0.01%; pH: 5.70) and 33 μl are analysed by HPLC with a reverse phase column thermostatically maintained at 45° C. and are quantified by means of a coulometric detector. The potential of the first electrode of the detector is set at -90 mV (reduction) and the second at +280 mV (oxidation). The mobile phase is injected with a pump at a flow rate of 2 ml/min. The sensitivity limits for dopamine, norepinephrine and serotonin are 0.55 fmole per sample. All the products of the invention are injected subcutaneously in a volume of 1.0 ml/kg. The products are dissolved in distilled water to which a few drops of lactic acid have been added if necessary.

[3] = test system: male CD mice; test: Test of aggressiveness in isolated mice; format: in vivo; conditions: Mus musculus, ip, 0.5 h; i.p.; treatment 30 minutes before pairing; 3 minutes observation; read-out: Inhibitory Dose 50 of the number or duration of the attacks
Source text: This test allows the evaluation of the intraspecies anti-aggressive activity of a product in mice that have been kept in isolation for several months.
The test uses male CD mice (Charles River) weighing from 22 to 25 g when they arrive at the animal house. On their arrival, the animals are isolated in individual cages made of opaque black polycarbonate (23×14×13 cm) with a grill lid, and are housed for a prolonged period (approximately six months) in the experimentation room.
The selection of aggressive pairs of mice that will be used for an extended period in the study commences after the animals have been isolated for one month. Once or twice per week a mouse from another cage (intruder) is placed in the cage of a (resident) mouse and the two animals are observed to see if they attack one another (sniffing, pursuing, nicking, biting) during that trial. At the end of the trial (maximum duration 10 minutes), each mouse is isolated again in its own cage. If attacks have occurred, the same pair will be tested again in the next trial; if there have been no attacks, each mouse of that pair will be placed in the presence of another mouse in the subsequent trial. […]
The test takes place once a week. […] The latent period (in seconds) of the first attack and the number and total duration (in seconds) of the attacks are recorded. […]

T1 sequence (P31652 whole entry): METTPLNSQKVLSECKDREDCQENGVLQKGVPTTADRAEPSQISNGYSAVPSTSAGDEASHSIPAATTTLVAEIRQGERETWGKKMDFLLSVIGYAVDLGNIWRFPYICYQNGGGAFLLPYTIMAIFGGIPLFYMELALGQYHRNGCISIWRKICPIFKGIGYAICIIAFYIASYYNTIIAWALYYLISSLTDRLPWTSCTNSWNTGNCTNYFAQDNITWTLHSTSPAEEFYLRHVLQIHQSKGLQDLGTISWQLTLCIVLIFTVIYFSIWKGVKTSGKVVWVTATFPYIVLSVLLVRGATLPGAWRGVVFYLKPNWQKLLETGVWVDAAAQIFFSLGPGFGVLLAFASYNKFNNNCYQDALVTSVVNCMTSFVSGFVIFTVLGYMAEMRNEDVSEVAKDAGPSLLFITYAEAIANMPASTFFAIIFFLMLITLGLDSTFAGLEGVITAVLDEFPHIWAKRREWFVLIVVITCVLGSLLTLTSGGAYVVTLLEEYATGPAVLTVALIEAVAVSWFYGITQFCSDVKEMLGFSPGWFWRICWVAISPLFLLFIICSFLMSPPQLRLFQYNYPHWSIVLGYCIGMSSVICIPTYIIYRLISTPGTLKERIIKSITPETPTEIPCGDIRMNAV

c1ccc2c(c1)[C@@H]1CNC[C@]21COc1ccc2c(c1)OCO2 (relative stereo) [Example 1, cis-3a-[(3,4-Methylenedioxyphenoxy)methyl]-2,3,3a,7b-tetrahydro-1H-benzo[3,4]cyclobuta[1,2-c]pyrrole]
Ki [1]: 0.0126 µM
increase in the level of dopamine, maximum % of the effect compared with the baseline level [2]: 54.8%±6.4
increase in the level of noradrenaline, maximum % of the effect compared with the baseline level [2]: 96.4%±7.8
increase in the level of serotonin, maximum % of the effect compared with the baseline level [2]: 226.3%±20.1
ED50 [3]: < 5 mg/kg
